Measured values: US20220030868A1, “FUNGICIDAL HALOMETHYL KETONES AND HYDRATES” (FMC CORPORATION, priority 2018, published 2022)

Tests used:
Phakopsora pachyrhizi = assay: Test A: test suspension sprayed on soybean seedlings one day before inoculation with Phakopsora pachyrhizi spores (Asian soybean rust), visual disease rating; assay type: in vivo; details: 100 = 100% disease control, 0 = no control
Outline: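 Soybean seedlings were sprayed to run-off with test suspension (acetone 3% of volume, acetone/water 50/50, 250 ppm PEG400) and inoculated with rust spores one day later. Incubation: 24 h saturated atmosphere at 22° C, then 8 days growth chamber at 22° C; scores 0–100 relative to untreated controls.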

[1] = tested on: Puccinia recondita f. sp. tritici; assay: Test B: test suspension sprayed on wheat seedlings one day before inoculation with Puccinia recondita f. sp. tritici spores (wheat leaf rust), disease rating; assay type: in vivo; details: 100 = 100% disease control, 0 = no control
Outline: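 Wheat seedlings were sprayed to run-off with compound suspended in 50/50 acetone/water containing 250 ppm PEG400, then inoculated with P. recondita f. sp. tritici spores the next day. Plants were held 24 h in saturated air at 20 °C, then 6 days in a growth chamber at 20 °C. Disease control was rated 0–100% relative to controls, with some entries run at 50 or 10 ppm.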

Row | Compound | Test A rating (disease control) (Phakopsora pachyrhizi; 10 ppm test suspension) | Test B rating (disease control) ([1]; 10 ppm test suspension) | further results
1 | O=C(c1csc(Cc2ccc(OCC(O)(O)C(F)(F)F)cc2)n1)N1CCC1 [Compound 215] | 80% | 55% | –
2 | CCO/C(=C\Oc1ccc(Cn2ccc(C(=O)OCC3CCC3)n2)cc1)C(F)(F)F [compound 361] | 100% | 0% | –
3 | O=C(OCC1CCCCC1)c1cnn(Cc2ccc(OCC3(C(F)(F)F)OCCO3)cc2)c1 [compound 272] | 100% | 0% | –
4 | CCO/C(=C\Oc1cccc(Cn2cc(C(=O)OCC(C)=O)cn2)c1)C(F)(F)F [compound 337] | 100% | 0% | –
5 | CCOC(=COc1ccc(CC2CC(C(=O)N(C)C)=NO2)cc1)C(F)(F)F (mixture of isomers) [compound 288] | – | – | Test A rating (disease control) (Phakopsora pachyrhizi; 50 ppm test suspension): 96%; Test B rating (disease control) ([1]; 50 ppm test suspension): 0%
6 | CCOC(=O)c1ccn(Cc2ccc(OCC(O)(O)C(F)(F)F)cc2)n1 [Compound 233] | – | – | Test A rating (disease control) (Phakopsora pachyrhizi; 50 ppm test suspension): 100%; Test B rating (disease control) ([1]; 50 ppm test suspension): 96%
7 | C=CC(F)(F)OC(=O)c1cnn(Cc2ccc(OCC(O)(O)C(F)(F)F)cc2)c1 [Compound 38] | 97% | 89% | –
8 | CCO/C(=C\Oc1ccc(Cn2cc(C(=O)OC(C)C)cn2)cc1)C(F)(F)F [compound 139] | 100% | 0% | –
9 | CCCNC(=O)c1ccc(O/C=C(\OCC)C(F)(F)F)cc1 [compound 104] | 0% | 80% | –
10 | CCCOC(=O)c1cnn(Cc2ccc(OCC(O)(O)C(F)(F)F)cc2)c1 [Compound 42] | 99% | 85% | –
11 | CCO/C(=C\Oc1ccc(CNS(=O)(=O)CC)cc1)C(F)(F)F [compound 149] | 0% | 0% | –
12 | CCOC(=O)c1cnn(Cc2ccc(OCC3(C(F)(F)F)OCCO3)c(F)c2)c1 [Compound 263, ethyl 1-[[3-fluoro-4-[[2-(trifluoromethyl)-1,3-dioxolan-2-yl]methoxy]phenyl]methyl]-1H-pyrazole-4-carboxylate] | – | – | pest or weed control at 10 ppm (Phakopsora pachyrhizi; Phakopsora pachyrhizi, 10 ppm test suspension): 100%; pest or weed control at 10 ppm ([1]; 10 ppm test suspension): 0%
13 | CCO/C(=C\Oc1ccc(CNC(=O)CC)cc1)C(F)(F)F [compound 150] | 33% | 0% | –
14 | CCOC(=O)c1ccc(O/C=C(\OCC)C(F)(F)F)cc1 [compound 95] | 0% | 0% | –
15 | CCO/C(=C\Oc1ccc(Cn2cc(C(=O)NCC3CC3)cn2)cc1)C(F)(F)F [compound 117] | 23% | 0% | –
16 | O=C(O)c1cnn(Cc2ccc(OCC3(C(F)(F)F)OCCO3)cc2)c1 [compound 93] | 96% | 0% | –
17 | N#CCOC(=O)c1cnn(Cc2ccc(OCC3(C(F)(F)F)OCCO3)cc2)c1 [compound 172] | 100% | 0% | –
18 | C#CCOC(=O)c1cnn(Cc2ccc(OCC(O)(O)C(F)(F)F)cc2)c1 [Compound 44] | 97% | 85% | –
19 | CCO/C(=C\Oc1ccc(Cn2nc(C)cc2C)cc1)C(F)(F)F [compound 152] | 0% | 0% | –
20 | COC(=O)c1cnn(Cc2ccc(OCC3(C(F)(F)F)OCCO3)cc2)c1 [compound 13] | 99% | 0% | –
21 | CCO/C(=C\Oc1ccc(Cc2ccnc(SC)n2)cc1)C(F)(F)F [compound 308] | – | – | Test A rating (disease control) (Phakopsora pachyrhizi; 50 ppm test suspension): 25%; Test B rating (disease control) ([1]; 50 ppm test suspension): 0%
22 | O=C(OCC1CCCC1)c1cnn(Cc2ccc(OCC3(C(F)(F)F)OCCO3)cc2)c1 [compound 284] | 100% | 0% | –
23 | CC=CCOC(=O)c1cnn(Cc2ccc(OCC3(C(F)(F)F)OCCO3)cc2)c1 [compound 285] | 100% | 0% | –
24 | CCO/C(=C\Oc1ccc(C#N)cc1)C(F)(F)F [compound 144] | 78% | 0% | –
25 | COC(=O)NN=Cc1ccc(OCC(O)(O)C(F)(F)F)cc1 [Compound 33] | 96% | 86% | –
26 | CCO/C(=C\Oc1ccc(CN2CCC(OC)CC2)cc1)C(F)(F)F [compound 312] | 0% | 0% | –
27 | CCO/C(=C\Oc1ccc(C(=O)OC(C)C)cc1)C(F)(F)F [compound 73] | 0% | 0% | –
